Here are results for 12 compounds from patent US4663323A, “Tetrazole derivatives, anti-ulcer composition containing the same and method for treating ulcers” (Otsuka Pharmaceutical Co., Ltd., priority 1984, dated 1987).

Read-outs that look alike come from different tables or passages of the source.

Series [1] relates to gastric juice secretion. As to the kind of experiment: Shay rat pylorus ligation method (gastric juice secretion-inhibiting activity). In kind it is in vivo, male Wistar rats. The conditions noted are these: sc, 4 h, 100 mg/kg s.c., 30 min before pylorus ligation, measured 4 hours after ligation. The method, then: The pharmacological activities of the compouns (I) were tested by a Shay rat pylorus ligation method (cf. H. Shay et al: Gastroenterol., Vol. 5, page 43, 1945) which is the most popular method for testing of gastric juice secretion-inhibiting activity. The test was carried out by using male Wistar rats, weighing about 170 g and fasting for 24 hours.
Test compounds were administered 30 minutes before the pylorus ligation in a dose of 100 mg/kg in subcutaneous route, and the volume, total acidity and/or pepsin activity of the gastric juice were measured 4 hours after the ligation. As a control, a saline solution was administered instead of the test compound. The inhibitory ratio (%) of the test compounds were calculated when the inhibitory activities of the control were counted as zero (0).
(§1) In the table, the inhibitory ratio (%) was evaluated as follows: […]

Series [2] in a line: Acute Toxicity. As to conditions: rat, in vivo, po, male Wistar rats. How it is done: The test compounds were orally administered to male Wistar rats, and the half lethal dose (LD50) was measured.
The subject of series [3] is Stress Ulcer. Kind of series: Stress Ulcer. In kind it is in vivo, male Wistar rats. The conditions noted are these: oral, 1×10^-3 mole in 0.5% CMC, before restraint and water dipping at 23° C. for 7 hours. The method, then:
After male Wistar rats weighing about 170 g was fasted for 24 hours, the rats were restrained in a stress cage and dipped in water bath at 23° C. till chest of the animals. After 7 hours, the rats were killed and the stomach was isolated. Into the isolated stomach 10% formalin (8 ml) was poured and settled. The stomach was cut open at the greater curvature, and the length of each ulcer on the membrane was measured. Sum of the length of all ulcers was shown as ulcer index (UI). The test compound was orally administered to the rats before restraint in a stress cage in the form of 0.5% CMC suspension in a concentration of 1×10^-3 mole. As a control, only the solvent (CMC solution) was administered likewise.
The inhibitory ratio (%) of stress ulcer of the test compounds was calculated by the following equation: [formula]
as §1

Setting [4] is: saline control = 0, read-out: Inhibitory ratio, Pepsin activity.
Setting [5] is: saline control = 0, read-out: Inhibitory ratio, Total acidity.
Setting [6] is: saline control = 0, read-out: Inhibitory ratio, Volume of gastric juice.

Regarding `CCN(C(=O)CCCCSc1nnnn1C)C1CCCCC1` [Compound 3, N-Ethyl-N-cyclohexyl-5-(1-methyl-1,2,3,4-tetrazol-5-yl)thio-valeramide], the inhibition in vivo at 100 mg/kg in series [1] (setting [4]) is 10 to 50%; in series [1] (setting [5]), 10 to 50%; in series [1] (setting [6]), greater than 50%. This compound also gave an LD50 in series [2] greater than 500 mg/kg.
Consider `CCN(CC)C(=O)CCCCc1nnnn1C1CCCCC1` [Compound 5, N,N-Diethyl-5-(1-cyclohexyl-1,2,3,4-tetrazol-5-yl)valeramide], for which the inhibition in vivo at 100 mg/kg in series [1] (setting [4]), in series [1] (setting [5]) and in series [1] (setting [6]) was 10 to 50% each time. The compound also registered an LD50 in series [2] greater than 500 mg/kg.
As to `Cn1nnnc1SCCCC(=O)NC1CCCCC1` [Compound 6, N-Cyclohexyl-4-(1-methyl-1,2,3,4-tetrazol-5-yl)thio-butyramide], the inhibition in vivo at 100 mg/kg in series [1] (setting [4]), in series [1] (setting [5]) and in series [1] (setting [6]) was 10 to 50% in each case. Besides, in series [2], the 50% lethal dose (LD50) is greater than 500 mg/kg.
`CCN(C(=O)CCCSc1nnnn1C)C1CCCCC1O` (stereo not shown) [Compound 8, N-Ethyl-N-(2-hydroxycyclohexyl)-4-(1-methyl-1,2,3,4-tetrazol-5-yl)thio-butyramide]: the inhibition in vivo at 100 mg/kg in series [1] (setting [4]), in series [1] (setting [5]) and in series [1] (setting [6]) was 10 to 50% each time. Besides, the median lethal dose (LD50) in series [2] was greater than 500 mg/kg.
In the case of `CCN(C(=O)CCCSc1nnnn1C)c1ccccn1` [Compound 10, N-Ethyl-N-(2-pyridyl)-4-(1-methyl-1,2,3,4-tetrazol-5-yl)thio-butyramide], the inhibition in vivo at 100 mg/kg in series [1] (setting [5]) is 10 to 50%. The compound further displayed a 50% lethal dose (LD50) in series [2] greater than 500 mg/kg.
Turning to `COc1ccc(CCN(C(=O)CCCSc2nnnn2C)C2CCCCC2)cc1OC` [Compound 11, N-Cyclohexyl-N-[2-(3,4,-dimethoxyphenyl)-ethyl]-4-(1-methyl-1,2,3,4-tetrazol-5-yl)thio-butyramide], the inhibition in vivo at 100 mg/kg in series [1] (setting [4]), in series [1] (setting [5]) and in series [1] (setting [6]) was 10 to 50% throughout. The same compound showed an LD50 in series [2] greater than 500 mg/kg.
In the case of `CCc1ccc(-n2nnnc2CSCCC(=O)N(CC)CC)cc1` [Compound 12, N,N-Diethyl-3-[1-(4-ethylphenyl)-1,2,3,4-tetrazol-5-yl]methylthio-propionamide], the inhibition in vivo at 100 mg/kg in series [1] (setting [4]), in series [1] (setting [5]) and in series [1] (setting [6]) was 10 to 50% in each case. In series [2], this compound returned an LD50 greater than 500 mg/kg.
In the case of `Cn1nnnc1SCCCC(=O)NCc1ccco1` [Compound 13, N-Furfuryl-4-(1-methyl-1,2,3,4-tetrazol-5-yl)thio-butyramide], the inhibition in vivo at 100 mg/kg in series [1] (setting [4]), in series [1] (setting [5]) and in series [1] (setting [6]) was 10 to 50% in each case. In series [2], this compound returned an LD50 greater than 500 mg/kg.
For the compound `CCNC(=O)CCSCc1nnnn1-c1ccccc1` [Compound 16, N-Ethyl-3-(1-phenyl-1,2,3,4-tetrazol-5-yl)-methylthio-propionamide], in series [3], the “Inhibitory ratio of stress ulcer” value is “+ (30 to less than 60%)”. In addition, the 50% lethal dose (LD50) in series [2] was greater than 500 mg/kg.
With `CCN(CC)C(=O)CCCCc1nnnn1-c1ccccc1` [Compound 35, N,N-Diethyl-5-(1-phenyl-1,2,3,4-tetrazol-5-yl)valeramide], the inhibition in vivo at 100 mg/kg in series [1] (setting [4]), in series [1] (setting [5]) and in series [1] (setting [6]) was 10 to 50% throughout. Besides, the “Inhibitory ratio of stress ulcer” value in series [3] is listed as “+ (30 to less than 60%)”.
As for `CCN(C(=O)CCCCc1nnnn1C)C1CCCCC1` [Compound 51, N-Ethyl-N-cyclohexyl-5-(1-methyl-1,2,3,4-tetrazol-5-yl)valeramide], the inhibition in vivo at 100 mg/kg in series [1] (setting [6]) lay in the range of 10 to 50%. Further, in series [3], the “Inhibitory ratio of stress ulcer” value was “+ (30 to less than 60%)”.
For `CCN(CC)C(=O)CCCCc1nnn[nH]1` [Compound 52, N,N-Diethyl-5-(1,2,3,4-tetrazol-5-yl)-valeramide] the same measures were 10 to 50% and “+ (30 to less than 60%)”.
